According to US20240067693A1, “POLYPEPTIDES AND USES THEREOF” (MEDIMMUNE LIMITED, priority 2020, published 2024):
Numbered stars: 1 amine (or outer) side, 2 acyl side, 3 side chain; on linkers, the order of the positions; unused ones are H or OH. Bridge positions count the residues as written; N and C are the ends. Square brackets hold non-standard residues; d marks the D form. Side chains are listed from the residue outwards. Peptide text beside a SMILES is read from it. * marks the point of attachment. C18 diacid = O=C(O)CCCCCCCCCCCCCCCCC(=O)*; γGlu = O=C(O)[C@H](CCC(=O)[*:2])N[*:1]; AEEA = NCCOCCOCC(=O)O; Aib = CC(C)(N)C(=O)O

What was measured:
[1] = target: T1, human amylin receptor (calcitonin receptor co-expressed with receptor activity modifying protein, RAMP3) (hAMYR3) (Homo sapiens, UniProt O60896+P30988); assay: cAMP production in 1321N1 cells with stable recombinant expression of human amylin receptor (hAMYR3); format: cell-based; conditions: for Ratio (selectivity hAMYR vs hCTR, ratio of EC50 values at the two receptors): EC50 hCTR / EC50 hAMYR3; for EC50: cAMP, 1321N1 cells, assay buffer with 0.1% BSA, read-out: EC50 (pM) hAMYR3
T1 construct: expressed in transfected cells
T1 sequence (P30988 25-474): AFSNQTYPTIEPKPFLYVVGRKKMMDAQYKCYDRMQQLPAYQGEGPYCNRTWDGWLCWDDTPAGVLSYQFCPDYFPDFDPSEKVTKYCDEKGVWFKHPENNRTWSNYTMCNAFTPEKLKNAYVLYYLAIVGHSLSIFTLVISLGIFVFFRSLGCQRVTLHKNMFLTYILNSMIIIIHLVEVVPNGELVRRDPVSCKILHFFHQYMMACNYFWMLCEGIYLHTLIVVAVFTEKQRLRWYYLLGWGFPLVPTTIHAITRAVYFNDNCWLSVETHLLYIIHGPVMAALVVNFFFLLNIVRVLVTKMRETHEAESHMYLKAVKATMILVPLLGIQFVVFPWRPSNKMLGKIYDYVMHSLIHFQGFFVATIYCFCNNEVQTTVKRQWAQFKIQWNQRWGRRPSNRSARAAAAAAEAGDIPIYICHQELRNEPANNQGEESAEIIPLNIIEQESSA
T1 sequence (O60896 24-148 partner): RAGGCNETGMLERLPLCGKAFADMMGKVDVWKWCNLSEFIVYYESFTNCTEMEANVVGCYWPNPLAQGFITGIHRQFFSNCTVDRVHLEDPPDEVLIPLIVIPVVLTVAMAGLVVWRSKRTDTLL
Outline: (§1)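 Receptor-expressing cells (human receptors in 1321N1, rat receptors in HEK) incubated 30 min at room temperature with peptide in HBSS/HEPES pH 7.4, 0.1% BSA, 0.5 mM IBMX. cAMP read by HTRF; EC50 from 4-parameter fit as % of maximal amylin or calcitonin response.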

[2] = target: T2, human calcitonin receptor (hCTR) (Homo sapiens, UniProt P30988); assay: cAMP production in 1321N1 cells with stable recombinant expression of human calcitonin receptor (hCTR); format: cell-based; conditions: cAMP, 1321N1 cells, assay buffer with 0.1% BSA; read-out: EC50 (pM) hCTR
T2 construct: expressed in transfected cells
T2 sequence (P30988 25-474): T1 sequence (P30988 25-474)
Outline: as §1

Ratio (selectivity hAMYR vs hCTR, ratio of EC50 values at the two receptors) [1]	EC50 [1] [pM]	EC50 [2] [pM]	Compound
10	1050	10400	CC[C@H](C)[C@H](NC(=O)[C@@H]1CCCN1C(=O)CNC(=O)[C@H](Cc1ccccc1)NC(=O)[C@H](CC(N)=O)NC(=O)C(C)(C)NC(=O)[C@H](CO)NC(=O)[C@H](CO)NC(=O)[C@H](Cc1c[nH]cn1)NC(=O)[C@H](CCC(=O)O)NC(=O)[C@H](CC(C)C)NC(=O)[C@H](Cc1ccccc1)NC(=O)[C@H](CC(N)=O)NC(=O)[C@H](C)NC(=O)[C@H](CC(C)C)NC(=O)[C@H](CCCNC(=N)N)NC(=O)[C@H](CCC(N)=O)NC(=O)[C@@H](NC(=O)[C@H](C)NC(=O)[C@@H]1CSSC[C@H](NC(=O)[C@H](CCCCN)NC(=O)[C@@H](N)CCCCNC(=O)CC[C@H](NC(=O)CCCCCCCCCCCCCCCCC(=O)O)C(=O)O)C(=O)N[C@@H](CC(N)=O)C(=O)N[C@@H]([C@@H](C)O)C(=O)N[C@@H](C)C(=O)N[C@@H]([C@@H](C)O)C(=O)N1)[C@@H](C)O)C(=O)N[C@@H](CC(C)C)C(=O)N1CCC[C@H]1C(=O)N1CCC[C@H]1C(=O)N[C@H](C(=O)N[C@@H](CC(N)=O)C(=O)N[C@H](C(=O)NCC(=O)N[C@@H](CO)C(=O)N[C@@H](CC(N)=O)C(=O)N[C@H](C(=O)N[C@@H](Cc1ccc(O)cc1)C(N)=O)[C@@H](C)O)C(C)C)[C@@H](C)O [Peptide 39, K(γE-C18diacid)K[CNTATC]ATQRLANFLEHSS(Aib)NFGPILPPTNVGSNTY-amide] (H-K([γGlu-C18 diacid])KCNTATCATQRLANFLEHSS[Aib]NFGPILPPTNVGSNTY-NH2; disulfide 3-8)
6	470	2950	CC[C@H](C)[C@H](NC(=O)[C@@H]1CCCN1C(=O)CNC(=O)[C@H](Cc1ccccc1)NC(=O)[C@H](CC(N)=O)NC(=O)C(C)(C)NC(=O)[C@H](CO)NC(=O)[C@H](CO)NC(=O)[C@H](Cc1c[nH]cn1)NC(=O)[C@@H](NC(=O)[C@H](CC(C)C)NC(=O)[C@H](Cc1ccccc1)NC(=O)[C@H](CC(N)=O)NC(=O)[C@H](C)NC(=O)[C@H](CC(C)C)NC(=O)[C@H](CCCNC(=N)N)NC(=O)[C@H](CCC(N)=O)NC(=O)[C@@H](NC(=O)[C@H](C)NC(=O)[C@@H]1CSSC[C@H](NC(=O)[C@H](CCCCN)NC(=O)[C@@H](N)CCCCNC(=O)CC[C@H](NC(=O)CCCCCCCCCCCCCCCCC(=O)O)C(=O)O)C(=O)N[C@@H](CC(N)=O)C(=O)N[C@@H]([C@@H](C)O)C(=O)N[C@@H](C)C(=O)N[C@@H]([C@@H](C)O)C(=O)N1)[C@@H](C)O)C(C)C)C(=O)N[C@@H](CC(C)C)C(=O)N1CCC[C@H]1C(=O)N1CCC[C@H]1C(=O)N[C@H](C(=O)N[C@@H](CC(N)=O)C(=O)N[C@H](C(=O)NCC(=O)N[C@@H](CO)C(=O)N[C@@H](CCC(=O)O)C(=O)N[C@H](C(=O)N[C@@H](Cc1ccc(O)cc1)C(N)=O)[C@@H](C)O)C(C)C)[C@@H](C)O [Peptide 42, K(γE-C18diacid)K[CNTATC]ATQRLANFLVHSS(Aib)NFGPILPPTNVGSETY-amide] (H-K([γGlu-C18 diacid])KCNTATCATQRLANFLVHSS[Aib]NFGPILPPTNVGSETY-NH2; disulfide 3-8)
29	588	16900	CC[C@H](C)[C@H](NC(=O)[C@@H]1CCCN1C(=O)CNC(=O)[C@H](Cc1ccccc1)NC(=O)[C@H](CC(N)=O)NC(=O)C(C)(C)NC(=O)[C@H](CO)NC(=O)[C@H](CO)NC(=O)[C@H](Cc1c[nH]cn1)NC(=O)[C@H](CCCNC(=N)N)NC(=O)[C@H](CC(C)C)NC(=O)[C@H](Cc1ccccc1)NC(=O)[C@H](CC(N)=O)NC(=O)[C@H](C)NC(=O)[C@H](CC(C)C)NC(=O)[C@H](CCCNC(=N)N)NC(=O)[C@H](CCC(N)=O)NC(=O)[C@@H](NC(=O)[C@H](C)NC(=O)[C@@H]1CSSC[C@H](NC(=O)[C@@H](N)CCCCNC(=O)COCCOCCNC(=O)COCCOCCNC(=O)CC[C@H](NC(=O)CCCCCCCCCCCCCCCCC(=O)O)C(=O)O)C(=O)N[C@@H](CC(N)=O)C(=O)N[C@@H]([C@@H](C)O)C(=O)N[C@@H](C)C(=O)N[C@@H]([C@@H](C)O)C(=O)N1)[C@@H](C)O)C(=O)N[C@@H](CC(C)C)C(=O)N1CCC[C@H]1C(=O)N1CCC[C@H]1C(=O)N[C@H](C(=O)N[C@@H](CCC(=O)O)C(=O)N[C@H](C(=O)NCC(=O)N[C@@H](CO)C(=O)N[C@@H](CC(N)=O)C(=O)N[C@H](C(=O)N[C@@H](Cc1ccc(O)cc1)C(N)=O)[C@@H](C)O)C(C)C)[C@@H](C)O [Peptide 45, K(O2Oc-O2Oc-γE-C18diacid)[CNTATC]ATQRLANFLRHSS(Aib)NFGPILPPTEVGSNTY-amide] (H-K([AEEA-AEEA-γGlu-C18 diacid])CNTATCATQRLANFLRHSS[Aib]NFGPILPPTEVGSNTY-NH2; disulfide 2-7; N-terminus assumed)
3	109	362	CC[C@H](C)[C@H](NC(=O)[C@@H]1CCCN1C(=O)CNC(=O)[C@H](Cc1ccccc1)NC(=O)[C@H](CC(N)=O)NC(=O)C(C)(C)NC(=O)[C@H](CO)NC(=O)[C@H](CO)NC(=O)[C@H](Cc1c[nH]cn1)NC(=O)[C@@H](NC(=O)[C@H](CC(C)C)NC(=O)[C@H](Cc1ccccc1)NC(=O)[C@H](Cc1c[nH]cn1)NC(=O)[C@H](C)NC(=O)[C@H](CC(C)C)NC(=O)[C@H](CCCNC(=N)N)NC(=O)[C@H](CCC(N)=O)NC(=O)[C@@H](NC(=O)[C@H](C)NC(=O)[C@@H]1CSSC[C@H](NC(=O)[C@H](CCCCN)NC(=O)[C@@H](N)CCCCNC(=O)CC[C@H](NC(=O)CCCCCCCCCCCCCCCCC(=O)O)C(=O)O)C(=O)N[C@@H](CC(N)=O)C(=O)N[C@@H]([C@@H](C)O)C(=O)N[C@@H](C)C(=O)N[C@@H]([C@@H](C)O)C(=O)N1)[C@@H](C)O)C(C)C)C(=O)N[C@@H](CC(C)C)C(=O)N1CCC[C@H]1C(=O)N1CCC[C@H]1C(=O)N[C@H](C(=O)N[C@@H](CC(N)=O)C(=O)N[C@H](C(=O)NCC(=O)N[C@@H](CO)C(=O)N[C@@H](CC(N)=O)C(=O)N[C@H](C(=O)N[C@@H](Cc1ccc(O)cc1)C(N)=O)[C@@H](C)O)C(C)C)[C@@H](C)O [Peptide 46, K(γE-C18diacid)K[CNTATC]ATQRLAHFLVHSS(Aib)NFGPILPPTNVGSNTY-amide] (H-K([γGlu-C18 diacid])KCNTATCATQRLAHFLVHSS[Aib]NFGPILPPTNVGSNTY-NH2; disulfide 3-8)
2	218	468	CC[C@H](C)[C@H](NC(=O)[C@@H]1CCCN1C(=O)CNC(=O)[C@H](Cc1ccccc1)NC(=O)[C@H](CC(N)=O)NC(=O)C(C)(C)NC(=O)[C@H](CO)NC(=O)[C@H](CO)NC(=O)[C@H](Cc1c[nH]cn1)NC(=O)[C@@H](NC(=O)[C@H](CC(C)C)NC(=O)[C@H](Cc1ccccc1)NC(=O)[C@H](Cc1c[nH]cn1)NC(=O)[C@H](C)NC(=O)[C@H](CC(C)C)NC(=O)[C@H](CCCNC(=N)N)NC(=O)[C@H](CCC(N)=O)NC(=O)[C@@H](NC(=O)[C@H](C)NC(=O)[C@@H]1CSSC[C@H](NC(=O)[C@H](CCCCN)NC(=O)[C@@H](N)CCCCNC(=O)CC[C@H](NC(=O)CCCCCCCCCCCCCCCCC(=O)O)C(=O)O)C(=O)N[C@@H](CC(N)=O)C(=O)N[C@@H]([C@@H](C)O)C(=O)N[C@@H](C)C(=O)N[C@@H]([C@@H](C)O)C(=O)N1)[C@@H](C)O)C(C)C)C(=O)N[C@@H](CC(C)C)C(=O)N1CCC[C@H]1C(=O)N1CCC[C@H]1C(=O)N[C@H](C(=O)N[C@@H](CC(N)=O)C(=O)N[C@H](C(=O)NCC(=O)N[C@@H](CO)C(=O)N[C@@H](CCC(=O)O)C(=O)N[C@H](C(=O)N[C@@H](Cc1ccc(O)cc1)C(N)=O)[C@@H](C)O)C(C)C)[C@@H](C)O [Peptide 47, K(γE-C18diacid)K[CNTATC]ATQRLAHFLVHSS(Aib)NFGPILPPTNVGSETY-amide] (H-K([γGlu-C18 diacid])KCNTATCATQRLAHFLVHSS[Aib]NFGPILPPTNVGSETY-NH2; disulfide 3-8; N-terminus assumed)
